A short description of data set [1]: Metabolic stability, cytosol. The class given is in vitro ADME.
The test system of another data set is DU145 xenografts. In words: DU145 xenograft efficacy study. It is filed as in vivo, mouse. On the procedure: The mouse was selected because it is a rodent species and is internationally accepted as the species of choice for human xenograft studies. The nu/nu MF1 strain was selected.
A high dose level of 1 mg/kg given once daily for 10 days was selected for this study. Low and intermediate dose levels of 0.3 and 0.6 mg/kg/day were also selected to aid characterisation of the dose-response profile.
The test articles were reconstituted in 0.9% physiological saline B.P. to the required final concentrations; and where necessary, an organic solvent (e.g. DMSO or ethanol) was used to aid solubilisation of some materials.
Treated mice received a bolus intravenous injection of the test formulation once daily for two weeks (week-days only). A dose-volume of […] bodyweight was be used. Control mice were untreated.
A total of 175 female MF1 mice were obtained from the Biological Research Facility, SGHMS, London. Animals were in a weight range of 26-30 g (6 to 8 weeks of age). Mice were individually identified using a subcutaneously implanted microchip.
The xenografts were prepared from the DU145 cell line (ATCC HTB-81). Cells were grown in accordance with established methodology for this cell line to provide 5×10^6 cells per mouse.
Xenografts were established in the MF1 mice by subcutaneous injection into the right flank of each mouse (5×10^6 cells in […] phosphate buffered saline).
Animals were checked regularly until visible tumours appeared. Tumours were then measured in accordance with the relevant SOP three times per week and tumour volume calculated using the formula: […]
Measurements commenced approximately one week before the day of treatment (Day 0) when the xenograft reached an approximate volume of 0.05 cm^3 (e.g. dimensions of approximately 5×5×4 mm).
Once the tumours were established, mice were allocated into groups of 5 mice using a randomization procedure based on stratified xenograft volume.
Day 0 is defined as the day on which the average tumour volume is between 0.12 to 0.16 cm^3. Relative tumour volume on Day 0 is defined as 1.
Each mouse was observed and tumours measured until the xenografts tripled in volume (3Vo) compared with volume on the day of treatment (Vo). The elapsed period was the volume tripling time (VTT).

In a further data set the test system is A549-derived xenografts. In words: A549 xenograft combination study. It is filed as in vivo, mouse. The conditions noted are these: single agent (AS1410 1 mg/kg or cisplatin 6 mg/kg), after approximately 60 days. On the procedure: AS1410 was reconstituted in 0.9% saline B.P. to the required final concentration (0.331 and 0.0993) mg/ml of AS1410 succinate salt for intravenous administration).
The xenografts were prepared from the lung carcinoma A549 (ATCC Number CCL-185). Cells were grown in accordance with standard operating procedures and established methodology for this cell line to provide 5×10^6 cells per mouse.
A549-derived xenografts were established in 50 female nu/nu MF1 mice respectively by subcutaneous injection into the right flank of each mouse (5×10^6 cells in 100 μl phosphate buffered saline).
Animals were checked regularly until visible tumours appeared. Tumours were then measured in accordance with the relevant SOP regularly and tumour volume calculated using the formula: […]
Once the tumours were established, the mice were allocated into groups of 9 mice using a randomization procedure based on stratified xenograft volume.
Day 0 is defined as the day on which the average tumour volume is between 0.04 to 0.1 cm^3. Relative tumour volume on Day 0 is defined as 1.
Each mouse was observed and tumours measured until the xenografts tripled (3V0) in volume compared with volume on the day of treatment (V0). The elapsed period is the volume tripling time (VTT).
AS1410 was given by slow bolus intravenous injection. For AS1410 a dose volume 5 μl/g bodyweight was used. Control mice were untreated. […]

The structures appear in SMILES notation.

Turning to `CN(C)c1ccc(Nc2c3ccc(NC(=O)CCN4CCCC4)cc3nc3cc(NC(=O)CCN4CCCC4)ccc23)cc1` [BSG01], in data set [1] (t = 30), the “Cytosol (t = 30)” value was 3.5. Also, in data set [1] (t = 60), the “Cytosol (t = 60)” value came out at 6.3.
For the compound `O=C(CCN1CCCC1)Nc1ccc2c(NCc3ccc(F)c(F)c3)c3ccc(NC(=O)CCN4CCCC4)cc3nc2c1` [BSG17, N-(9-(3,4-Difluoro-benzylamino)-6-(3-pyrolidin-1-yl-propionamide)-acridin-3-yl)-3-pyrrolidin-1-yl-propionamide], the T-C value amounted to 7 days with DU145 xenografts (0.3 mg/kg/day iv), 11.6 days in the data set with DU145 xenografts (0.6 mg/kg/day iv) and 11 days with DU145 xenografts (1 mg/kg/day iv). In addition, in the data set with DU145 xenografts (0.3, 0.6 and 1.0 mg/kg/day iv, compared with BSG01), the “xenograft response” value is “clear dose response and effects at all three dose levels”. Moreover, in the data set on A549-derived xenografts, the relative tumour volume result is recorded as “about 5”.
